Experimental data published in US10668032B2 (SyneuRx International (Taiwan) Corp., priority 2016, dated 2020).

Assays:
C57BL/6J mice = test: Von Frey test of acute mechanical pain; type: in vivo, mouse; settings: 256 mg/kg i.p.
Description: Animals are housed and kept in the same condition as previous described.
The Von Frey test is used to assess mechanical nociception. A mouse is placed in a small box (10 cm×6 cm×10.5 cm) on a confined area of wire mesh (65 cm×21 cm×31 cm) (2450 Electronic Von Frey Anesthesiometer, IITC, U.S.A.). The mouse was kept in the box for 60 min to acclimatize. When the tested mouse calms down, a special tip with electrode inside was used to poke its hind paw.

primary cortical neurons = test: 3-NP induced toxicity in primary cortical culture (Hoechst staining, MAP-2 immunocytochemistry); type: cell-based, rat
Description: Primary cortical cultures were prepared from embryonic day 18 (E18) fetal Sprague Dawley (SD) rat brains. The cells were maintained in Neurobasal medium supplemented with B27 (GIBCO/Life Technologies of Thermo Fisher Scientific Corporation) at 37° C. for 7 days to allow growth of dendrites before experimentation.
3-NP (Cat. No. 73803, Sigma, St. Louis, Mo., USA) was dissolved in phosphate-buffered saline (PBS) as a stock solution of 1 M and adjusted to pH 7.4 with 10 M sodium hydroxide. The 3-NP stock solution was then dispensed into 1-ml aliquots, protected from light, and stored at −20° C. until use.
Hoechst staining is used to assess the extent of the cell survival. Cells were fixed in 4% paraformaldehyde (PFA) in phosphate-buffered saline (PBS), incubated with the Hoechst 33342 diluted in PBS (1:1000) for 5-15 minutes. The Hoechst staining is used to assess the extent of the cell survival after the exposure to 2.5 mM 3-NP for 24 hours.
Cells were fixed in 4% PFA and washed in PBS, blocked with 2% bovine serum albumin (BSA) and treated by 0.03% Triton X-100 in PBS, before being incubated with mouse monoclonal antibody against microtubule-associated protein-2 (MAP-2) in 1:150 dilution (Cat. No. MAB378, CHEMICON International, Inc., Temecula, Calif., USA). The goat anti-mouse IgG Alexa fluor-conjugated secondary antibodies (Cat No. A11003, Thermo Scientific) in 1:500 dilution were applied to recognize the primary antibodies of the MAP-2. For confocal microscopy, the coverslips were observed under a laser-scanning confocal microscope (Zeiss LSM700; Oberkochen, Germany) equipped with filter sets to detect the corresponding fluorescent signals.
The cells were then exposed to 2.5 mM 3-NP for 24 hours.
Quantitative analysis was also performed to assess the extents of cell death. At least three vision fields were randomly selected and the averaged numbers of dead cells and all nuclei per vision field on each coverslip were calculated.

[1] = test system: MPTP-induced C57BL/6J mice; test: Pole test in MPTP-induced mice; type: in vivo, mouse; settings: 256 mg/kg body weight/day after 5 weeks of MPTP 30 mg/kg/day i.p.
Description: Animals were housed and kept in the same condition as previous described. Male C57BL/6J mice (age: 12 weeks) were randomly assigned to 2 groups—vehicle control and MPTP-induced groups. The mice of MPTP-induced group were intraperitoneally injected with MPTP (30 mg/kg body weight/day) for five weeks, while those in the vehicle control group received injections of the same volume of saline. After 5 weeks of MPTP exposure, pole test was performed to elucidate the effect of MPTP-induced disability.
Pole test was used to measure the degree of bradykinesia, a typical symptom of parkinsonism. The animals were positioned head upward near the top of a rough-surfaced pole (1 cm in diameter and 60 cm in height). The time taken until they turned downward (Tturn) and the total time taken to climb down to the floor (TLA), were recorded. When the mouse was not able to turn downward, Tturn was taken as 60 seconds (default value).

[2] = Plasma pharmacokinetics of lithium after oral gavage (ICP-MS)
Description: Male Sprague-Dawley rats weighed between 240-260 g were randomly assigned to two groups. […] These two regimens would provide the same molarity of lithium and benzoate. The chemicals were dissolved in PBS, and then administrated by oral gavage. All rats were fasted overnight with free access to water before experiments. After single dose administration of drugs, the blood samples were then collected at the time point 0, 5, 15, 30, 60, 90, 120, 240, 360, 720, and 1440 min.
Blood samples were collected in tubes coated with sodium heparin from jugular vein catheterized rats. Then, the blood samples were kept on ice and centrifuged at 2,500×g for 15 min at 4° C. The supernatant was collected and then kept frozen at −80° C. until further processing.

In the case of `O=C([O-])c1ccccc1.[Li+]` [lithium benzoate], the “acute mechanically evoked pain (paw withdrawal threshold)” value (C57BL/6J mice; vs PBS) is reported as “alleviated”, the “time course of the antinociceptive effect” value (C57BL/6J mice; tested at 30, 60, 90, 120 min) is reported as “obvious after 30 min of administration and lasted till 60 min” and the “cell survival, drug only” value (primary cortical neurons; cortical culture treated only with lithium benzoate, not 3-NP) is reported as “No difference”. For the same compound, the “cell survival (protection from 3-NP induced neuron death)” value (primary cortical neurons; lithium benzoate 1 mM or 3 mM pre-treatment 24 h, then 2.5 mM 3-NP 24 h) was “significantly protected”, the “MAP-2 immunocytochemistry, confocal microscopy” value (primary cortical neurons; lithium benzoate 1 or 3 mM, 3-NP exposure) was “neuronal protection” and the “total time for turning down (TLA), pole test” value [1] was “significantly reduced”. The “turning time (Tturn), pole test” value [1] was “significantly reduced”, the Tmax of lithium ([2]; rat, single oral gavage, NaBen 287.9 mg/kg + Li2CO3 74.2 mg/kg or LiBen 255.3 mg/kg) was 2.208 h and the Cmax ([2]; read-out: Cmax of lithium, rat, single oral gavage, NaBen 287.9 mg/kg + Li2CO3 74.2 mg/kg or LiBen 255.3 mg/kg) was 1720 µM.
